Results: BindingDB's records for doi:10.1021/jm00163a033 (University of Massachusetts Medical School, 1990)

Assays:
[1] = molecular target: Thymidine kinase (Human herpesvirus 2); experiment: Inhibition of TdR phosphorylation using thymidine kinase (TK) assay for herpes simplex virus type 2 (HSV-2).
[2] = molecular target: Thymidine kinase (Human herpesvirus 2); experiment: as above; remark: listed apart in the source

| IC50 [1] [µM] | Ki [2] [µM] | Structure (SMILES) |
| --- | --- | --- |
| 6 |  | Cc1ccc(Nc2nc3nc[nH]c3c(=O)[nH]2)cc1 |
| 2.5 |  | O=c1[nH]c(Nc2ccc(F)c(Cl)c2)nc2nc[nH]c12 |
| 1.3 |  | O=c1[nH]c(Nc2ccc(Br)c(Br)c2)nc2nc[nH]c12 |
| 2.2 |  | O=c1[nH]c(Nc2ccc(F)c(F)c2)nc2nc[nH]c12 |
| 20 |  | O=c1[nH]c(Nc2ccc(O)cc2)nc2nc[nH]c12 |

Further lines, the compound ahead of its results:

| Structure (SMILES) | IC50 [1] [µM] | Ki [2] [µM] |
| --- | --- | --- |
| O=c1[nH]c(Nc2cccc(Cl)c2)nc2nc[nH]c12 | 0.35 |  |
| O=c1[nH]c(NCc2ccc(Cl)cc2)nc2nc[nH]c12 | 5.5 |  |
| O=c1[nH]c(Nc2cccc(CO)c2)nc2nc[nH]c12 | 20 |  |
| O=c1[nH]c(Nc2ccc(C(F)(F)F)cc2)nc2nc[nH]c12 | 40 |  |
| CCCCCCNc1nc2nc[nH]c2c(=O)[nH]1 [2-Hexylamino-1,9-dihydro-purin-6-one] | 10 |  |
| O=c1[nH]c(Nc2ccc(Br)cc2)nc2nc[nH]c12 | 0.6 |  |
| O=c1[nH]c(Nc2ccc3ccccc3c2)nc2nc[nH]c12 | 10 |  |
| O=c1[nH]c(Nc2cccc(C(F)(F)F)c2)nc2nc[nH]c12 [2-(3-Trifluoromethyl-phenylamino)-1,9-dihydro-purin-6-one] | 0.1 |  |
| CCc1cccc(Nc2nc3nc[nH]c3c(=O)[nH]2)c1 | 4 |  |
| O=c1[nH]c(NCCCCCO)nc2nc[nH]c12 | 40 |  |
| CCCCCCNC1=NC(=O)C2N=CN([C@H]3C[C@H](O)[C@@H](CO)O3)C2=N1 (stereo partly specified) |  | 2 |
